{"source": "patent US11981664B2", "about": "“Photoresponsive nutlin derivatives and uses thereof” (Rijksuniversiteit Groningen, priority 2018, dated 2024)", "key": {"[1]": {"tested_on": "p53 protein level in RPE-1 cells", "experiment": "Immunofluorescent staining of nuclear p53 protein in RPE-1 cells", "assay_type": "cell-based", "settings": "for nuclear p53 protein levels: 4 h after addition, regardless of irradiation with 400 nm light", "protocol": "(§1) FIG. 3: Functional p53 induction upon λ=400 nm irradiation in PPG-idasanutlin treated cells, a) RPE-1 cells were treated with indicated compounds (all 10 μM final) and fixed 4 h after 5 min (−/+400 nm) irradiation. Anti-p53 staining indicates p53 protein expression in the nucleus. […] Error bars represent mean +sd, ****P<0.0001 (unpaired t-test), Dots represent individual cells, n>125 cells per condition combined from 2 independent experiments. c) Representative western blot showing p53 protein levels in cells 4 h after addition of DMSO or PPG-idasanutlin and irradiation for indicated time periods. Hsp90 is used as a loading control. d) Selective outgrowth disadvantage in RPE-1 cells 6 days after PPG-idasanutlin treatment +400 nm irradiation for 5 min. e) Representative Western blot showing p53 protein levels in three cell lines (U2OS, RKO, BJhTert) 4 h after indicated treatments. f) Selective outgrowth inhibition in indicated cell lines 6 days after PPG-idasanutlin treatment +400 nm irradiation for 5 min. In all the experiments <1% DMSO was used.\nRPE-1 cells were plated on coverslips at equal density and treated with indicated drugs before −/+irradiation (400 nm for 5 min). For immune fluorescent staining, cells were fixed 4 h after irradiation by wash out of the medium, single wash in phosphate-buffered saline (1× PBS) and incubation in 3.7% formaldehyde for 5 min. Next, fixed cells were permeabilized with 0.2% TritonX in 1× PBS for 5 min before blocking in 3% […] (BSA) in 1× PBS supplemented with 0.1% Tween (PBST) for 1 h (all at room temperature (RT)). Cells were incubated overnight at 4° C. with primary antibody in PBST with 3% BSA, washed three times with PBST, and incubated with secondary antibody and DAPI in PBST with 3% BSA for 2 h at RT. After a final three time wash with PBST coverslips were mounted on microscopic analysis slides using ProLong Gold antifade reagent (Thermo Fisher). The following antibodies were used: anti-p53 (sc-126, Santa Cruz, 1/1000), phalloidin (A12380, Molecular Probes, 1/1000) and goat anti-mouse/Alexa. 488 (A11029, Molecular Probes, 1/1000).\nNext, the biological activity of PPG-idasanutlin was investigated. Initial studies aimed at confirming a difference in p53 activation upon λ=400 nm light exposure after addition of the protected idasanutlin derivative (PPG-idasanutlin). To that end, non-transformed, p53-proficient retinal pigment epithelial cells (RPE-1) were treated with either DMSO (control), nutlin-3, idasanutlin or PPG-idasanutlin, followed by −/+irradiation with 400 nm light (FIG. 3)."}, "[2]": {"tested_on": "cellular outgrowth", "experiment": "Cell outgrowth experiments with PPG photoproduct", "assay_type": "cell-based", "settings": "photoproduct formed upon photocleavage of photonutlin", "protocol": "(§2) Cells were plated at equal amounts (1000 cells per well) in a 24-wells plate followed by indicated treatments −/+irradiation (400 nm for 5 min) 24 h later. Cells were cultured under normal cell culture conditions for 6 days to allow colony outgrowth. Plates were fixed using 99.8% ice-cold methanol (Honeywell) for 10 min at RT. After a 1 time wash in H2O, cells were incubated in 0.2% crystal violet (Sigma) in H2O for at least 3 h at RT to stain cellular outgrowth."}, "[3]": {"tested_on": "p53-venus in RPE-1 cells", "experiment": "Live-cell imaging of nuclear p53-venus signal after single-cell laser irradiation", "assay_type": "cell-based", "protocol": "(§3) FIG. 5: Spatiotemporal control of PPG-idasanutlin. a) Schematic representation of microwell set-up for laser irradiation of individual RPE-1 cells to activate PPG-idasanutlin. Laser target area (represented. by red circle) for single pulse (0.1 sec irradiation at 5 um interspaced position) indicated with scale. Individual irradiated cells followed by measuring nuclear p53-venus levels (fluorescence) every 15 min for 3 h after laser irradiation. Approximately 200 cells in each microwell. b) Percentage of cells that divide within 8 h after indicated treatments. Mean±sem of three independent experiments. Error bars indicate 95% confidence intervals. c, d) p53-venus fluorescent signal in individual RPE-1 cells tracked over time after indicated treatments as represented in (a). Line-graphs represent mean of individual cells. n>42 cells per condition pooled from three independent experiments. ***p<0.005, ****p<0.0001 significance in 2-way anova interaction score.\nFor live cell imaging, cells were grown in picovitro microwells covered by a silicon membrane^4 in Leibovitz's L-15 (Gibco) CO2-independent medium supplemented with ultraglutamine, penicillin/streptomycin and 10% fetal calf serum. Images for both fixed slides and live cell imaging were obtained using a Delta Vision Elite (applied precision) equipped with a 60× 1.6 NA or 10× 0.75 NA lens (Olympus) and cooled CoolSnap CCD camera. Directed laser irradiation was performed using a brief (0.1 s) pulse of a 405 nm laser on the Delta Vision Elite microscope equipped with a X4 laser module (Applied Precision). Image analysis was done using ImageJ software. […]\nUsing RPE-1 cells that stably expressed a venus-tagged version of p53 (p53-venus), p53 protein accumulation could be tracked with high time-resolution in individual cells by live-cell microscopy. […] To determine the functionality of the high spatiotemporal control obtained in this set-up, cell cycle progression was monitored in single cells following laser activation of PPG-idasanutlin (photorelease of idasanutlin). […]"}, "[4]": {"tested_on": "RPE-1 p53-venus cells", "experiment": "Live-cell imaging of cell division after single-cell laser irradiation", "assay_type": "cell-based", "settings": "RPE-1 p53-venus cells irradiated with 405 nm laser (0.1 s pulse) after treatment", "protocol": "as §3, with “score. […]” for “score.”\nUsing RPE-1 cells that stably expressed a venus-tagged version of p53 (p53-venus), p53 protein accumulation could be tracked with high time-resolution in individual cells by live-cell microscopy. […] To determine the functionality of the high spatiotemporal control obtained in this set-up, cell cycle progression was monitored in single cells following laser activation of PPG-idasanutlin (photorelease of idasanutlin)."}, "[5]": {"experiment": "Spontaneous hydrolysis in buffer", "assay_type": "physicochemical", "settings": "buffer at room temperature (data not shown)", "protocol": "(§4) Following the synthesis of PPG-idasanutlin as described in Example 1, its photochemical behavior under physiological conditions was investigated, UV-vis spectroscopy and UPLC-MS measurements were performed in aqueous buffer at pH=7.0. […] Moreover, no significant spontaneous hydrolysis of PPG-idasanutlin for >24 h in buffer at room temperature was observed (data not shown)."}, "[6]": {"tested_on": "p53 protein level in RPE-1 cells", "experiment": "p53 protein levels (western blot) in RPE-1 cells, dose-response", "assay_type": "cell-based", "settings": "increasing duration of 400 nm irradiation and varying doses, 4 h", "protocol": "as §1, with “used. […]” for “used.”\nTo examine the level of control over the dose-response of idasanutlin (employing PPG-idasanutlin), p53 protein levels in RPE-1 cells were determined by immunostaining after both increasing duration of 400 nm light irradiation and varying doses of PPG-idasanutlin (FIG. 3.c)."}, "[7]": {"tested_on": "p53 in BJ-hTert, RKO (colon carcinoma), U2OS (osteosarcoma) cell lines", "experiment": "p53 protein levels (western blot) in additional cell lines", "assay_type": "cell-based", "settings": "U2OS (all cell lines tested), after light irradiation, 4 h", "protocol": "as §1\nRPE-1 cells were plated at equal density in 6-well plates followed by indicated treatments −/+irradiation (400 nm for 5 min) 24 h later. Cells were fixed and collected 4 h after treatment by wash out of the medium, single wash in 1× PBS followed by addition of laemmli buffer (4% SDS, 20% glycerol and 0.125 M Tris HCl). […]"}, "[8]": {"tested_on": "RPE-1 cells", "experiment": "Clonogenic outgrowth of RPE-1 cells", "assay_type": "cell-based", "settings": "6 days", "protocol": "as §1\nas §2, with “After a 1 time wash in H2O, cells were incubated in 0.2% crystal violet (Sigma) in H2O for at least 3 h at RT to stain cellular outgrowth.” left out"}, "[9]": {"tested_on": "BJ-hTert, RKO (colon carcinoma), U2OS (osteosarcoma) cell lines", "experiment": "Clonogenic outgrowth of additional cell lines", "assay_type": "cell-based", "settings": "6 days after treatment + 400 nm irradiation for 5 min", "protocol": "as §1\nas §2, with “After a 1 time wash in H2O, cells were incubated in 0.2% crystal violet (Sigma) in H2O for at least 3 h at RT to stain cellular outgrowth.” left out"}, "[10]": {"experiment": "Photochemical behavior (photocleavage) by UV-vis spectroscopy and UPLC-MS in aqueous buffer", "assay_type": "physicochemical", "settings": "λ=400 nm light, aqueous buffer pH=7.0", "protocol": "Thin Layer Chromatography (TLC) was performed using commercial Kieselgel 60, F254 silica gel plates with fluorescence-indicator UV254 (Merck, TLC silica gel 60 F254). For detection of components, UV light at λ=254 nm or λ=365 nm was used. Alternatively, oxidative staining using aqueous basic potassium permanganate solution (KMnO4) or aqueous acidic cerium phosphomolybdic acid solution (Seebach's stain) was used. Flash chromatography was performed on silica gel (Silicycle Siliaflash P60, […], 230-400 mesh). Drying of solutions was performed with MgSO4 and volatiles were removed with a rotary evaporator. Nuclear Magnetic Resonance spectra were measured with an Agilent Technologies 400-MR (400/54 Premium Shielded) spectrometer (400 MHz). All spectra were measured at room temperature (22-24° C.). Chemical shifts for ^1H- and ^13C-NMR measurements were determined relative to the residual solvent peaks in ppm (δH 7.26 for CHCl3, 2.50 for DMSO and 2.05 ppm for Acetone, δC 77.16 for CHCl3 and 39.52 for DMSO). The following abbreviations are used to indicate signal multiplicity: s, singlet; d, doublet; t, triplet; q, quartet; m, multiplet; brs, broad signal. All ^13C-NMR spectra are ^1H-broadband decoupled. High-resolution mass spectrometric measurements were performed on a Thermo scientific LTQ Orbitrap XL with ESI ionization. For spectroscopic measurements, solutions in Uvasol® grade solvents were measured in a 10 mm quartz cuvette. UV-Vis absorption spectra were recorded on an Agilent 8453 UV-Visible absorption Spectrophotometer.\nas §4"}}}
{"smiles": "COc1cc(C(=O)O)ccc1NC(=O)[C@@H]1N[C@@H](CC(C)(C)C)[C@](C#N)(c2ccc(Cl)cc2F)[C@H]1c1cccc(Cl)c1F", "note": "[idasanutlin, 4-((2R,3S,4R,5S)-3-(3-chloro-2-fluorophenyl)-4-(4-chloro-2-fluorophenyl)-4-cyano-5-neopentylpyrrolidine-2-carboxamido)-3-methoxybenzoic acid, reference compound]", "values": [{"measurement": "nuclear p53 protein levels", "setting": "[1]; 10 μM", "result": "significant increase"}]}
{"smiles": "COc1ccc(C2=N[C@@H](c3ccc(Cl)cc3)[C@@H](c3ccc(Cl)cc3)N2C(=O)N2CCNC(=O)C2)c(OC(C)C)c1", "note": "[nutlin-3, reference compound]", "values": [{"measurement": "nuclear p53 protein levels", "setting": "[1]; 10 μM", "result": "significant increase"}]}
{"smiles": "CCN(CC)c1ccc2c(C(C)O)cc(=O)oc2c1", "note": "(stereo not drawn) [PPG 6, 7-(diethylamino)-4-(1-hydroxyethyl)-2H-chromen-2-one]", "values": [{"measurement": "cellular outgrowth", "setting": "[2]", "result": "does not perturb"}]}
{"smiles": "CCN(CC)c1ccc2c(C(C)OC(=O)c3ccc(NC(=O)[C@@H]4N[C@@H](CC(C)(C)C)[C@](C#N)(c5ccc(Cl)cc5F)[C@H]4c4cccc(Cl)c4F)c(OC)c3)cc(=O)oc2c1", "note": "(stereo partly drawn) [PPG-idasanutlin, 1-(7-(diethylamino)-2-oxo-2H-chromen-4-yl)ethyl 4-((2R,3S,4R,5S)-3-(3-chloro-2-fluorophenyl)-4-(4-chloro-2-fluorophenyl)-4-cyano-5-neopentylpyrrolidine-2-carboxamido)-3-methoxybenzoate]", "values": [{"measurement": "nuclear p53-venus signal", "setting": "[3]; neighbouring cells not irradiated by the 405 nm laser", "result": "significantly lesser extent"}, {"measurement": "nuclear p53-venus signal", "setting": "[3]; non-irradiated cells from adjacent wells at micrometer distance", "result": "completely absent"}, {"measurement": "nuclear p53-venus signal", "setting": "[3]; single cells irradiated with 405 nm laser, 15 min intervals", "result": "selective stabilization"}, {"measurement": "p53 protein level", "setting": "[1]; 10 μM, irradiated with 400 nm light (5 min), fixed 4 h after", "result": "significant increase"}, {"measurement": "p53 stabilization", "setting": "[1]; without 400 nm irradiation", "result": "no functional effect"}, {"measurement": "percentage of cells that divide within 8 h", "setting": "[4]", "result": "strongly drops"}, {"measurement": "time without significant spontaneous hydrolysis", "setting": "[5]", "result": "> 24", "unit": "h"}, {"measurement": "accumulation of p53 protein", "setting": "[6]", "result": "clear dose-response dependent accumulation"}, {"measurement": "stabilization of p53", "setting": "[7]", "result": "Selective stabilization"}, {"measurement": "colony outgrowth", "setting": "[8]; after irradiation with 400 nm for 5 min", "result": "selectively blocked"}, {"measurement": "colony outgrowth (growth inhibition)", "setting": "[8]; without 400 nm irradiation", "result": "did not show any growth inhibition"}, {"measurement": "cellular outgrowth", "setting": "[9]", "result": "dramatic reduction"}, {"measurement": "irradiation time for major photorelease of idasanutlin", "setting": "[10]", "result": "≤ 5", "unit": "min"}, {"measurement": "products observed upon photodeprotection", "setting": "[10]", "result": "solely the formation of idasanutlin and hydroxycoumarin"}, {"measurement": "quantum yield of photocleavage", "setting": "[10]", "result": 0.1, "unit": "%"}]}
